# Data from the NIST ThermoML archive (doi:10.1016/j.jct.2011.06.020).
# Numbers after ± are expanded uncertainties.
# Tests used:
# [1] = xn = mol fraction of the nth substance listed; details: x2 = 0; for surface tension liquid-gas: Tensiometer with plate; for viscosity / mass density: 101 kPa, Liquid; for viscosity: Capillary tube (Ostwald / Ubbelohde) method; for mass density: Vibrating tube method
# [2] = refractive index (Na D-line) (dimensionless); xn = mol fraction of the nth substance listed; details: 101 kPa, Liquid, Standard Abbe refractometry, x2 = 0
structure (smiles),measurement,setting,value
O [water] + CN1CCNCC1,surface tension liquid-gas,[1]; 293.15 K,72.09 ± 0.12 mN/m
same,viscosity,[1]; 298.15 K,0.894 ± 0.019 mPa·s
same,surface tension liquid-gas,[1]; 303.15 K,71.27 ± 0.12 mN/m
same,viscosity,[1]; 303.15 K,0.8 ± 0.017 mPa·s
same,surface tension liquid-gas,[1]; 308.15 K,70.44 ± 0.12 mN/m
same,surface tension liquid-gas,[1]; 313.15 K,69.66 ± 0.12 mN/m
same,viscosity,[1]; 313.15 K,0.656 ± 0.014 mPa·s
same,surface tension liquid-gas,[1]; 318.15 K,68.83 ± 0.12 mN/m
same,surface tension liquid-gas,[1]; 323.15 K,67.95 ± 0.12 mN/m
same,viscosity,[1]; 325.15 K,0.55 ± 0.012 mPa·s
same,mass density,[1]; 325.15 K,988.03 ± 0.05 kg/m3
same,surface tension liquid-gas,[1]; 333.15 K,66.23 ± 0.12 mN/m
same,viscosity,[1]; 333.15 K,0.47 ± 0.01 mPa·s
same,mass density,[1]; 333.15 K,983.2 ± 0.05 kg/m3
same,viscosity,[1]; 343.15 K,0.409 ± 0.009 mPa·s
same,mass density,[1]; 343.15 K,977.78 ± 0.05 kg/m3
same,refractive index,[2]; 293.15 K,1.333 ± 0.001
same,refractive index,[2]; 298.15 K,1.333 ± 0.001
same,refractive index,[2]; 303.15 K,1.332 ± 0.001
same,refractive index,[2]; 308.15 K,1.331 ± 0.001
same,refractive index,[2]; 313.15 K,1.331 ± 0.001
same,refractive index,[2]; 318.15 K,1.331 ± 0.001
same,refractive index,[2]; 323.15 K,1.329 ± 0.001
same,refractive index,[2]; 328.15 K,1.328 ± 0.001
same,refractive index,[2]; 333.15 K,1.327 ± 0.001
